The record followed here is patent US7087635B2, “3-substituted oxindole β3 agonists” (Eli Lilly and Company, priority 2001, dated 2006).

This assay deals with T1, human β3 adrenergic receptor (Homo sapiens, UniProt P13945).
T1 construct: expressed in transfected cells; host or cells: DXB-11 Chinese hamster ovary (CHO) cell line, stably transfected, phd expression vector
T1 sequence (P13945 whole entry): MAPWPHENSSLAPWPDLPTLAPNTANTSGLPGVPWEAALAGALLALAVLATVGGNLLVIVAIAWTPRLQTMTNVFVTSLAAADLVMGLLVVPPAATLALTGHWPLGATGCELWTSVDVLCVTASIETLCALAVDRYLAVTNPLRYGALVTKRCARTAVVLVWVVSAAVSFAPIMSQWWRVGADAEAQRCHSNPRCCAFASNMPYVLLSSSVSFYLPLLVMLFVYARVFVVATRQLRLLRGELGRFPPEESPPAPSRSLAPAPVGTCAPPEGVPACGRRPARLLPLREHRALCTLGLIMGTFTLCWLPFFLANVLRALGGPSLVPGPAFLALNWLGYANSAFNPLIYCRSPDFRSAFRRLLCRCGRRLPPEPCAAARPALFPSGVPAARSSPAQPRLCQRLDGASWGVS
Description: whole cell receptor coupled c-AMP assay (Emax relative to isoproterenol). The format is cell-based. To be noted: % intrinsic activity relative to isoproterenol maximal response; transfected CHO cells. The source says: The genes encoding the human β1-adrenergic receptor (Frielle et al., Proc. Natl. Acad. Sci., 84:7920–7924, 1987), the human β2-adrenergic receptor (Kobika el al., Proc. Natl. Acad. Sci., 84:46–50, 1987, Emorine et al., Proc. Natl. Acad. Sci., 84:6995–6999, 1987) and the human β3 adrenergic receptor (Granneman et al., Molecular Pharmacology, 44(2):264–70, 1993) are individually subcloned into a phd expression vector (Grinnell et al., Bio/Technology, 5:1189–1192, 1987) and transfected into the DXB-11 Chinese hamster ovary (CHO) cell line by calcium phosphate precipitation methodology. The stably transfected cells are grown to 95% confluency in 95% Dulbecco's modified Eagles Medium (DMEM), 5% fetal bovine serum and 0.01% proline. Media is removed and the cells are washed with phosphate buffered (pH 7.4) saline (without magnesium and calcium). Cells are then lifted using an enzyme free cell dissociation solution (Specialty Media, Lavallette, N.J.) and pelleted by centrifugation.
Cells from each of the above cell lines are resuspended and added (20,000/well) to a 96-well plate. Cells are incubated at 37° C. with representative compounds of the invention for 20 minutes in buffer (Hank's balanced salt solution, 10 mM HEPES, 0.1% BSA, 1 mM L-ascorbic acid, 0.2% dimethyl sulfoxide, 1 mM 3-isobutyl-1-methylxanthine, pH 7.4). After halting the incubation with quench buffer (50 mM Na Acetate, 0.25% Triton X-100, pH 5.8), the c-AMP level is quantified by scintillation proximity assay (SPA) using a modification of the commercially available c-AMP kit (Amersham, Arlington Heights, Ill.) with rabbit anti-cAMP antibody (ICN Biomedicals, Aurora, Ohio) for the kit.
Sigmoidal dose response curves, from the whole cell receptor coupled c-AMP assay are fit to a four parameter logistic equation using non linear regression: y=(a–d)/(1+(Dose/c)^b)+d where a and d are responses at zero and maximal dose, b is the slope factor and c is the EC50 as previously described (DeLean et al., Am. J. Physiol., 235, E97–E102, 1978). EC50 is assessed as the concentration producing 50% of the maximum response to each agonist.
Isoproterenol is accepted in the art as a non-selective β3 agonist and is widely used as a comparator in evaluating the activity of compounds. See Trends in Pharm. Sci., 15:3, 1994. The % intrinsic activity (Emax) of representative compounds of the invention is assessed relative to isoproterenol by the compound's maximal response divided by the isoproterenol maximal response times 100.
`CC(C)(Cc1c[nH]c2c(OCC3=NCCS3)cccc12)NC[C@H](O)COc1cccc2c1C1(CCCC1)C(=O)N2` [Example 66]: the Emax was 84.9%.
Then `C[C@H](Cn1ccc2c(OCC(=O)O)cccc21)NC[C@H](O)COc1cccc2c1C1(CCCC1)C(=O)N2` [Example 68], with 73.3%; and `CC(C)(Cc1c[nH]c2cccc(C(=O)O)c12)NC[C@H](O)COc1cccc2c1C1(CCCC1)C(=O)N2` [Example 69], with 37.9%.
Then `CC(C)(Cc1c[nH]c2ccc(C(=O)O)cc12)NC[C@H](O)COc1cccc2c1C1(CCCC1)C(=O)N2` [Example 70], with 53.5%.
With `CC(C)(Cc1c[nH]c2c(C(=O)O)cccc12)NC[C@H](O)COc1cccc2c1C1(CCCC1)C(=O)N2` [Example 71], the maximal effect (Emax) stood at 59.5%.
The compound `CC(C)(Cc1c[nH]c2cc(C(=O)O)ccc12)NC[C@H](O)COc1cccc2c1C1(CCCC1)C(=O)N2` [Example 72] returned an Emax of 56.2%.
In turn, `CC(C)(Cc1c[nH]c2c(Oc3ccc(C(=O)O)cn3)cccc12)NC[C@H](O)COc1cccc2c1C1(CCCC1)C(=O)N2` [Example 73] came in with a maximum response (Emax) of 82.4%.
`CC(C)(Cc1c[nH]c2c(Oc3ccc(-c4nn[nH]n4)cn3)cccc12)NC[C@H](O)COc1cccc2c1C1(CCCC1)C(=O)N2` [Example 74]: the Emax amounted to 78.1%.
With `CC(C)(Cc1c[nH]c2c(Oc3ccc(C(N)=O)cn3)cccc12)NC[C@H](O)COc1cccc2c1C1(CCCC1)C(=O)N2` [Example 75], the maximum response (Emax) worked out at 80.1%.
On to `CC(C)(Cc1c[nH]c2c(Oc3ncccc3-c3nn[nH]n3)cccc12)NC[C@H](O)COc1cccc2c1C1(CCCC1)C(=O)N2` [Example 76], for which the Emax stood at 80.1%.
To `CC(C)(Cc1c[nH]c2c(-c3cccc(C(=O)O)c3)cccc12)NC[C@H](O)COc1cccc2c1C1(CCCC1)C(=O)N2` [Example 78] belongs 93.5%; to `CC(C)(Cc1c[nH]c2c(-c3ccc(C(=O)O)s3)cccc12)NC[C@H](O)COc1cccc2c1C1(CCCC1)C(=O)N2` [Example 79], 75.1%.
As to `CC(C)(Cc1c[nH]c2c(CCC(=O)O)cccc12)NC[C@H](O)COc1cccc2c1C1(CCCC1)C(=O)N2` [Example 80], the maximal effect (Emax) is 77.2%.
`CC(C)(Cc1c[nH]c2c(CCc3nnn[nH]3)cccc12)NC[C@H](O)COc1cccc2c1C1(CCCC1)C(=O)N2` [Example 81] displayed an Emax of 77.4%.
In the case of `CC(C)(Cc1c[nH]c2cc(CCc3nnn[nH]3)ccc12)NC[C@H](O)COc1cccc2c1C1(CCCC1)C(=O)N2` [Example 82], the Emax was 72.7%.
Compound `CC(C)(Cc1c[nH]c2c(CCc3cnccn3)cccc12)NC[C@H](O)COc1cccc2c1C1(CCCC1)C(=O)N2` [Example 83] showed an Emax of 79.3%.
For `CC(C)(Cc1c[nH]c2c(CCc3ccc(S(N)(=O)=O)cc3)cccc12)NC[C@H](O)COc1cccc2c1C1(CCCC1)C(=O)N2` [Example 84], the maximal response (Emax) was found to be 78.5%.
Then `CC(C)(Cc1c[nH]c2cccc(C(N)=O)c12)NC[C@H](O)COc1cccc2c1C1(CCCC1)C(=O)N2` [Example 85], with 48.3%.
